Test results from patent US9193995B2, “Compositions for detecting human interferon-alpha subtypes and methods of use” (UNITED STATES DEPARTMENT OF HEALTH AND HUMAN SERVICES, priority 2008, dated 2015).

Columns and labels:
Assay in all cases: IFN subtype expression in response to TLR ligands (RT-PCR)
Type in all cases: cell-based, Human
[1] = system: plasmacytoid DC (pDC); details: 10 uM Imiquimod, 6.5 ug/ml CpG A, 1, 4 or 24 hours, much higher levels than mDC
From the text: (§1) To test whether expression of IFN subtypes varied among different cell types, the primers of the invention were used to determine expression patterns of IFN-alpha, IFN-lambda, IFN-beta and IFN-gamma in response to ligands of TLR 3 (poly I:C), 4 (LPS), 7 (imiquimod) and 9 (CpG). LPS (E. coli O111:B4), imiquimod, and poly I:C were purchased from EMD Chemicals (Gibbstown, N.J.). CpG types D35, K, and C, and control D35 GpC oligonucleotides were synthesized by the Food and Drug Administration Center for Biologics Evaluation and Research Facility for Biotechnology Resources. For both the D35 CpG and control GpC, the two bases at the 5′ and 3′ ends had nuclease-resistant phosphorothioate linkages.
(§2) Human peripheral blood monocytes, myeloid DC (mDC), plasmacytoid DC (pDC), and B cells were isolated. Elutriated monocytes and lymphocytes were obtained from the NIH Clinical Center Department of Transfusion Medicine (Bethesda, Md.) and the preparation was subjected to Ficoll-Hypaque (Sigma-Aldrich, St. Louis, Mo.) density centrifugation. Monocytes, mDC and pDC were purified with magnetic beads specific for CD14, CD1c, and CD303, respectively using an AutoMACS magnetic cell sorter (Miltenyi Biotec, Auburn, Calif.). […]

[2] = system: myeloid DC (mDC); details: 10 uM Imiquimod, 6.5 ug/ml CpG A, 1, 4 or 24 hours, varied with donor, FIG. 9E
From the text: as §1, §2

[3] = system: monocytes, MDM and MDDC; details: 25 ug/ml Poly I:C, 10 ng/ml LPS, 1, 4 or 24 hours, FIG. 9A-C
From the text: as §1, §2

Row | Molecule | IFN expression in response to TLR ligand [1] | IFN expression in response to TLR ligand [2] | IFN expression in response to TLR ligand [3]
1 | CC(C)Cn1cnc2c(N)nc3ccccc3c21 [imiquimod] | expressed most IFN | expressed most IFN-a subtypes | –
2 | poly I:C | – | – | expressed high levels of IFN-b, IFN-g, IFN-11, and to a lesser extent, IFN-l2 and IFN-a1
